Experiments:
[1] = test system: C[C@@H](O)[C@H]1C(=O)N2C(C(=O)O)=C(S[C@@H]3CN[C@H](CNS(N)(=O)=O)C3)[C@H](C)[C@H]12; experiment: Activity of Pseudomonas aeruginosa VIM-2
[2] = test system: C[C@@H](O)[C@H]1C(=O)N2C(C(=O)O)=C(S[C@@H]3CN[C@H](CNS(N)(=O)=O)C3)[C@H](C)[C@H]12; experiment: Kcat/Km ratio of Pseudomonas aeruginosa VIM-2
[3] = target: Beta-lactamase OXA-23 (Acinetobacter baumannii) (UniProt Q9L4P2); experiment: Activity of Acinetobacter baumannii OXA-23 relative to Cephaloridine
[4] = test system: Klebsiella oxytoca; experiment: Kcat/Km ratio of Klebsiella oxytoca Beta-lactamase K1 relative to Cephaloridine
[5] = target: Beta-lactamase OXA-10 (Pseudomonas aeruginosa) (UniProt P14489); experiment: Activity of Pseudomonas aeruginosa OXA-10 relative to Cephaloridine
[6] = test system: Escherichia coli; experiment: Kcat/Km ratio of Klebsiella pneumoniae Beta-lactamase TEM-26 relative to Cephaloridine
[7] = target: T1, Beta-lactamase SHV-1 (Klebsiella pneumoniae) (UniProt P0AD64); experiment: Kcat/Km ratio of Klebsiella pneumoniae SHV-1 relative to Cephaloridine
T1 sequence (whole entry): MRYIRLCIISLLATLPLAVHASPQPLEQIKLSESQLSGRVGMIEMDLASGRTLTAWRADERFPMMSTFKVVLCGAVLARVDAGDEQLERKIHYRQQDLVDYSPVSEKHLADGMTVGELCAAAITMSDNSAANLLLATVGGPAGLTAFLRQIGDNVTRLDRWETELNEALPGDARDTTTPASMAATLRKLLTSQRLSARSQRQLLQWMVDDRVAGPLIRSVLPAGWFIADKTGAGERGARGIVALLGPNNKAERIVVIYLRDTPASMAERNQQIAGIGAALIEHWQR

[8] = test system: Klebsiella oxytoca; experiment: Activity of Klebsiella oxytoca Beta-lactamase K1 relative to Cephaloridine
[9] = target: Carbapenem-hydrolyzing beta-lactamase KPC (Klebsiella pneumoniae) (UniProt Q9F663); experiment: Activity of Klebsiella pneumoniae KPC-2 relative to Cephaloridine
[10] = target: T2, Beta-lactamase IMP-1 (Pseudomonas aeruginosa) (UniProt Q8G9Q0); experiment: Activity of Pseudomonas aeruginosa IMP-1 relative to Cephaloridine
T2 sequence (whole entry): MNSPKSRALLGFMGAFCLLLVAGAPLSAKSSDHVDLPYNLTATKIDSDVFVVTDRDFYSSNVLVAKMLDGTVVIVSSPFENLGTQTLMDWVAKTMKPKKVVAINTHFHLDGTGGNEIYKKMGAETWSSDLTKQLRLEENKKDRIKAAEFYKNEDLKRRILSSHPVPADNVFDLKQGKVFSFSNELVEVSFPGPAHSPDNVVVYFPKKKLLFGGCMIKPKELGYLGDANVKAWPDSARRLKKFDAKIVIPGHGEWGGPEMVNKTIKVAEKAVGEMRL

[11] = test system: Klebsiella oxytoca; experiment: Kcat/Km ratio of Klebsiella oxytoca Beta-lactamase K1
[12] = target: Beta-lactamase (Escherichia coli) (UniProt Q53TY8); experiment: Kcat/Km ratio of Escherichia coli CMY-2 relative to Cephaloridine
[13] = target: Carbapenem-hydrolyzing beta-lactamase KPC (Klebsiella pneumoniae) (UniProt Q9F663); experiment: Kcat/Km ratio of Klebsiella pneumoniae KPC-2 relative to Cephaloridine
[14] = test system: Escherichia coli; experiment: Kcat/Km ratio of Klebsiella pneumoniae Beta-lactamase TEM-26
[15] = target: Beta-lactamase (Pseudomonas aeruginosa (strain ATCC 15692 / PAO1 / 1C / PRS 101 / LMG12228)) (UniProt P24735); experiment: Kcat/Km ratio of Pseudomonas aeruginosa AmpC relative to Cephaloridine
[16] = test system: Klebsiella pneumoniae; experiment: Activity of Klebsiella pneumoniae Beta-lactamase TEM-26
[17] = target: T2, Beta-lactamase IMP-1 (Pseudomonas aeruginosa); experiment: Kcat/Km ratio of Pseudomonas aeruginosa IMP-1 relative to Cephaloridine
[18] = target: T1, Beta-lactamase SHV-1 (Klebsiella pneumoniae); experiment: Activity of Klebsiella pneumoniae SHV-1 relative to Cephaloridine
[19] = test system: Escherichia coli; experiment: Activity of Klebsiella pneumoniae Beta-lactamase TEM-26 relative to Cephaloridine
[20] = test system: Klebsiella oxytoca; experiment: Activity of Klebsiella oxytoca Beta-lactamase K1
[21] = target: Beta-lactamase OXA-23 (Acinetobacter baumannii) (UniProt Q9L4P2); experiment: Kcat/Km ratio of Acinetobacter baumannii OXA-23 relative to Cephaloridine
[22] = target: Beta-lactamase OXA-10 (Pseudomonas aeruginosa) (UniProt P14489); experiment: Kcat/Km ratio of Pseudomonas aeruginosa OXA-10 relative to Cephaloridine
[23] = target: Beta-lactamase (Escherichia coli) (UniProt Q53TY8); experiment: Activity of Escherichia coli CMY-2 relative to Cephaloridine
[24] = target: Beta-lactamase (Pseudomonas aeruginosa (strain ATCC 15692 / PAO1 / 1C / PRS 101 / LMG12228)) (UniProt P24735); experiment: Activity of Pseudomonas aeruginosa AmpC relative to Cephaloridine
[25] = target: Beta-lactamase (Enterobacter cloacae) (UniProt P05364); experiment: Activity of Enterobacter cloacae AmpC relative to Cephaloridine
[26] = target: Beta-lactamase TEM (Escherichia coli) (UniProt P62593); experiment: Kcat/Km ratio of Escherichia coli TEM-1 relative to Cephaloridine
[27] = target: T3, Carbapenem-hydrolyzing beta-lactamase SME-3 (Serratia marcescens) (UniProt Q6PRG8); experiment: Activity of Serratia marcescens SME-3 relative to Cephaloridine
T3 sequence (whole entry): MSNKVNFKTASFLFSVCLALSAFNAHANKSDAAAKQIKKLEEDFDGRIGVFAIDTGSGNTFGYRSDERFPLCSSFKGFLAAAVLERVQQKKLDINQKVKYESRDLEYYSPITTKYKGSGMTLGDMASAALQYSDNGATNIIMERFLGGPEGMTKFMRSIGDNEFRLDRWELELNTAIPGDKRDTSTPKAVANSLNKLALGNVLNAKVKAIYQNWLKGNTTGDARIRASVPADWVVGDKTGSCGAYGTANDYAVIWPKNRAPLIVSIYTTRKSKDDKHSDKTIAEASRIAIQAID

[28] = target: Beta-lactamase CTX-M (Escherichia coli) (UniProt Q9EXV5); experiment: Kcat/Km ratio of Escherichia coli CTX-M-15 relative to Cephaloridine
[29] = target: T3, Carbapenem-hydrolyzing beta-lactamase SME-3 (Serratia marcescens); experiment: Kcat/Km ratio of Serratia marcescens SME-3 relative to Cephaloridine
[30] = target: Beta-lactamase TEM (Escherichia coli) (UniProt P62593); experiment: Activity of Escherichia coli TEM-1 relative to Cephaloridine
[31] = target: Beta-lactamase CTX-M (Escherichia coli) (UniProt Q9EXV5); experiment: Activity of Escherichia coli CTX-M-15 relative to Cephaloridine
[32] = target: Beta-lactamase (Enterobacter cloacae) (UniProt P05364); experiment: Kcat/Km ratio of Enterobacter cloacae AmpC relative to Cephaloridine
[33] = target: Beta-lactamase VIM-2 (Pseudomonas aeruginosa) (UniProt Q9K2N0); experiment: Kcat/Km ratio of Pseudomonas aeruginosa VIM-2 relative to Cephaloridine
[34] = target: Beta-lactamase VIM-2 (Pseudomonas aeruginosa) (UniProt Q9K2N0); experiment: Activity of Pseudomonas aeruginosa VIM-2 relative to Cephaloridine

| Compound | Activity [3] [%] | Activity [4] [%] | Activity [5] [%] | Activity [6] [%] | Activity [7] [%] | Activity [8] [%] | Activity [10] [%] | kcat/Km [11] [M⁻¹ s⁻¹] | Activity [12] [%] | Activity [13] [%] | kcat/Km [14] [M⁻¹ s⁻¹] | Activity [15] [%] | Km [16] [µM] | kcat [16] [s⁻¹] | Activity [17] [%] | Activity [19] [%] | Km [20] [µM] | kcat [20] [s⁻¹] | Activity [23] [%] | Activity [24] [%] | other results |
| --- | --- | --- | --- | --- | --- | --- | --- | --- | --- | --- | --- | --- | --- | --- | --- | --- | --- | --- | --- | --- | --- |
| Beta-lactamase VIM-2 (Pseudomonas aeruginosa) (from UniProt Q9K2N0) |  |  |  |  |  |  |  |  |  |  |  |  |  |  |  |  |  |  |  |  | Km [1]: 83 µM; kcat [1]: 2.4 s⁻¹; kcat/Km [2]: 29000 M⁻¹ s⁻¹ |
| CC(C)(O/N=C(\C(=O)N[C@@H]1C(=O)N2C(C(=O)[O-])=C(C[n+]3ccccc3)CS[C@H]12)c1csc(N)n1)C(=O)O | < 0.00093 | 0.0021 | < 0.059 | 130 | 0.00077 | 0.0027 | 14 | 93 | 0.033 | 0.22 | 730000 | < 0.48 | 130 | 95 | 5.7 | 260 | 140 | 0.013 |  |  | Activity [9]: 0.097%; Activity [18]: 0.0024% |
| CC1(C)S[C@@H]2[C@H](NC(=O)Cc3ccccc3)C(=O)N2[C@H]1C(=O)O | 120 | 440 | 540 | 2700 |  | 160 | 520 | 2e+07 | 420 | 260 | 1.5e+07 | 1 | 5 | 76 | 19 | 210 | 40 | 800 | 3.1 | 46 | Activity [21]: 12000%; Activity [9]: 15%; Activity [22]: 14000% |
| O=C(Cc1cccs1)N[C@@H]1C(=O)N2C(C(=O)[O-])=C(C[n+]3ccccc3)CS[C@H]12 |  |  |  |  |  |  |  | 4.5e+06 |  |  | 560000 |  | 66 | 37 |  |  | 110 | 490 |  |  |  |
| C[C@@H](O)[C@H]1C(=O)N2C(C(=O)O)=C(SCCNC=N)C[C@H]12 | 0.2 | 0.04 | < 0.088 | 0.03 | 0.092 | 0.019 | 70 | 1800 |  | 45 | 170 | < 7 | 14 | 0.0024 | 45 | 0.0065 | 51 | 0.091 | 0.0044 | < 0.031 | Activity [25]: 0.00048%; Activity [21]: 14200%; Activity [26]: 0.072%; Activity [9]: 7.9%; Activity [27]: 31%; Activity [28]: 0.029%; Activity [29]: 83%; Activity [30]: 0.00097%; Activity [31]: 0.09%; Activity [18]: 0.013%; Activity [32]: 0.0066% |
| C[C@@H](O)[C@H]1C(=O)N2C(C(=O)O)=C(S[C@@H]3CN[C@H](CNS(N)(=O)=O)C3)[C@H](C)[C@H]12 | 0.044 | 0.0033 | < 0.046 | 0.0082 | 0.027 |  | 41 | 150 | 0.67 | 45 | 46 | < 1.2 | 8 | 0.00037 | 28 | 0.001 | 45 | 0.0068 | 1e-05 | < 0.0063 | Activity [25]: 1.7e-05%; Activity [21]: 31%; Activity [26]: 0.0022%; Activity [33]: 34%; Activity [27]: 0.21%; Activity [34]: 2%; Activity [28]: 0.0051%; Activity [29]: 10%; Activity [30]: 2.1e-05%; Activity [31]: 0.00095%; Activity [18]: 0.00073%; Activity [32]: 0.00059% |
| O=C(Cc1cccs1)N[C@@H]1C(=O)N2C(C(=O)O)=C(/C=C/c3ccc([N+](=O)[O-])cc3[N+](=O)[O-])CS[C@H]12 |  |  |  |  |  |  |  |  | 1800 |  |  |  |  |  |  |  |  |  | 240 | 160 |  |
| C[C@@H](O)[C@H]1C(=O)N2C(C(=O)O)=C(S[C@@H]3CN[C@H](C(=O)N(C)C)C3)[C@H](C)[C@H]12 | 0.029 | 0.0024 | < 0.031 | 0.0079 | 0.015 | 0.002 | 9.6 | 110 | 0.058 | 37 | 44 | < 1.6 | 8.8 | 0.00039 | 31 | 0.0011 | 90 | 0.0096 | 1.1e-05 | < 0.0063 | Activity [25]: 1.2e-05%; Activity [21]: 14.9%; Activity [26]: 0.00083%; Activity [9]: 0.92%; Activity [27]: 0.27%; Activity [28]: 0.0078%; Activity [29]: 18%; Activity [30]: 2.3e-05%; Activity [31]: 0.0022%; Activity [18]: 0.00041%; Activity [32]: 0.00042% |
